Measurements from patent US10202339B2, “Therapeutic compounds and compositions” (AGIOS PHARMACEUTICALS, INC., priority 2012, dated 2019).

The compounds below were run against IDH1 R132H (Homo sapiens (Human), UniProt O75874, R132H) (assay: In vitro assay for IDH1m (R132H) inhibitors, NADPH depletion with resazurin/resorufin detection). Details: IDH1 R132H enzyme, 50 minutes at room temperature; read-out: IDH R132H IC50.
Format: biochemical
Description: Assays were conducted in a volume of 76 μl assay buffer (150 mM NaCl, 10 mM MgCl2, 20 mM Tris pH 7.5, 0.03% bovine serum albumin) as follows in a standard 384-well plate: To 25 ul of substrate mix (8 uM NADPH, 2 mM aKG), 1 μl of test compound was added in DMSO. The plate was centrifuged briefly, and then 25 μl of enzyme mix was added (0.2 μg/ml IDH1 R132H) followed by a brief centrifugation and shake at 100 RPM. The reaction was incubated for 50 minutes at room temperature, then 25 μl of detection mix (30 μM resazurin, […]) was added and the mixture further incubated for 5 minutes at room temperature. The conversion of resazurin to resorufin was detected by fluorescent spectroscopy at Ex544 Em590 c/o 590.
Representative compounds of formula (I) set forth in Tables 1 and 2 were tested in this assay and the results are set forth below in Table 4.

Chain of IDH1 R132H (O75874 whole entry R132H): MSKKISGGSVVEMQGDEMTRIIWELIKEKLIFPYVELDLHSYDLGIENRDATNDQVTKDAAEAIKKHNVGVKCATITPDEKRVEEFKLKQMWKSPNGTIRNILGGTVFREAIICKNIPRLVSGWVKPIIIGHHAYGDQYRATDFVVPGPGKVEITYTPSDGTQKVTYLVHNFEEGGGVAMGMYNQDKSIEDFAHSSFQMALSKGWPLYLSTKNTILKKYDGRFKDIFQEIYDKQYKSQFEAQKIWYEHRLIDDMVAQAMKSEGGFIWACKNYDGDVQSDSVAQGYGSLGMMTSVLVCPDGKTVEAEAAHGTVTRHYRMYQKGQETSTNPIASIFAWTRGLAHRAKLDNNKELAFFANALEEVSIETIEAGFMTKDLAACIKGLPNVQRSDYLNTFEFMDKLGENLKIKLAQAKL

IC50, 1 to 10 µM:
Cc1ccc(NC(=O)Nc2ccc(F)c(F)c2F)cc1S(=O)(=O)Nc1ccc(Cl)cc1 [Compound 248]
Cc1cccc(NC(=O)Nc2ccc(C)c(S(=O)(=O)Nc3ccc(Cl)cc3)c2)c1 [Compound 249]
CCc1ccccc1NC(=O)Nc1ccc(C)c(S(=O)(=O)Nc2ccc(Cl)cc2)c1 [Compound 250]
CCc1cccc(NC(=O)Nc2ccc(C)c(S(=O)(=O)Nc3ccc(Cl)cc3)c2)c1 [Compound 251]
CCc1ccc(NC(=O)Nc2ccc(C)c(S(=O)(=O)Nc3ccc(Cl)cc3)c2)cc1 [Compound 252]
CCCCc1ccc(NC(=O)Nc2ccc(C)c(S(=O)(=O)Nc3ccc(Cl)cc3)c2)cc1 [Compound 253]
Cc1ccc(NC(=O)Nc2ccc(C(C)C)cc2)cc1S(=O)(=O)Nc1ccc(Cl)cc1 [Compound 254]
Cc1ccc(NC(=O)Nc2ccccc2C(C)(C)C)cc1S(=O)(=O)Nc1ccc(Cl)cc1 [Compound 255]
Cc1ccc(NC(=O)Nc2ccc(C(C)(C)C)cc2)cc1S(=O)(=O)Nc1ccc(Cl)cc1 [Compound 256]
Cc1ccc(NC(=O)Nc2c(C)cccc2C)cc1S(=O)(=O)Nc1ccc(Cl)cc1 [Compound 257]
Cc1ccc(NC(=O)Nc2cccc(C)c2C)cc1S(=O)(=O)Nc1ccc(Cl)cc1 [Compound 258]
Cc1ccc(NC(=O)Nc2ccc(C)c(S(=O)(=O)Nc3ccc(Cl)cc3)c2)cc1C [Compound 259]
Cc1cc(C)cc(NC(=O)Nc2ccc(C)c(S(=O)(=O)Nc3ccc(Cl)cc3)c2)c1 [Compound 260]
CCc1cccc(CC)c1NC(=O)Nc1ccc(C)c(S(=O)(=O)Nc2ccc(Cl)cc2)c1 [Compound 261]
Cc1cc([N+](=O)[O-])ccc1NC(=O)Nc1ccc(C)c(S(=O)(=O)Nc2ccc(Cl)cc2)c1 [Compound 262]
Cc1ccc(NC(=O)Nc2ccc(C)c(S(=O)(=O)Nc3ccc(Cl)cc3)c2)cc1[N+](=O)[O-] [Compound 263]
Cc1ccc(NC(=O)Nc2cccc([N+](=O)[O-])c2C)cc1S(=O)(=O)Nc1ccc(Cl)cc1 [Compound 264]
COc1ccccc1NC(=O)Nc1ccc(C)c(S(=O)(=O)Nc2ccc(Cl)cc2)c1 [Compound 265]
COc1cccc(NC(=O)Nc2ccc(C)c(S(=O)(=O)Nc3ccc(Cl)cc3)c2)c1 [Compound 266]
COc1ccc(NC(=O)Nc2ccc(C)c(S(=O)(=O)Nc3ccc(Cl)cc3)c2)cc1 [Compound 267]
COc1ccc(OC)c(NC(=O)Nc2ccc(C)c(S(=O)(=O)Nc3ccc(Cl)cc3)c2)c1 [Compound 268]
COc1cc(NC(=O)Nc2ccc(C)c(S(=O)(=O)Nc3ccc(Cl)cc3)c2)cc(OC)c1 [Compound 269]
COc1ccc(Cl)cc1NC(=O)Nc1ccc(C)c(S(=O)(=O)Nc2ccc(Cl)cc2)c1 [Compound 270]
COc1cc(OC)c(NC(=O)Nc2ccc(C)c(S(=O)(=O)Nc3ccc(Cl)cc3)c2)cc1Cl [Compound 271]
COc1cc([N+](=O)[O-])ccc1NC(=O)Nc1ccc(C)c(S(=O)(=O)Nc2ccc(Cl)cc2)c1 [Compound 272]
CSc1cccc(NC(=O)Nc2ccc(C)c(S(=O)(=O)Nc3ccc(Cl)cc3)c2)c1 [Compound 273]
CSc1ccc(NC(=O)Nc2ccc(C)c(S(=O)(=O)Nc3ccc(Cl)cc3)c2)cc1 [Compound 274]
Cc1ccc(NC(=O)Nc2cccc([N+](=O)[O-])c2)cc1S(=O)(=O)Nc1ccc(Cl)cc1 [Compound 275]
COC(=O)c1cccc(NC(=O)Nc2ccc(C)c(S(=O)(=O)Nc3ccc(Cl)cc3)c2)c1 [Compound 276]
Cc1ccc(NC(=O)NCc2ccc(Br)cc2)cc1S(=O)(=O)Nc1ccc(Cl)cc1 [Compound 277]
Cc1ccc(NC(=O)NCc2ccccc2F)cc1S(=O)(=O)Nc1ccc(Cl)cc1 [Compound 278]
Cc1ccc(NC(=O)NCc2cccc(F)c2)cc1S(=O)(=O)Nc1ccc(Cl)cc1 [Compound 279]
Cc1ccc(NC(=O)NCc2ccc(Cl)cc2Cl)cc1S(=O)(=O)Nc1ccc(Cl)cc1 [Compound 280]
Cc1cccc(CNC(=O)Nc2ccc(C)c(S(=O)(=O)Nc3ccc(Cl)cc3)c2)c1 [Compound 282]
Cc1ccc(CNC(=O)Nc2ccc(C)c(S(=O)(=O)Nc3ccc(Cl)cc3)c2)cc1 [Compound 283]
Cc1ccc(NC(=O)N[C@H](C)c2ccccc2)cc1S(=O)(=O)Nc1ccc(Cl)cc1 [Compound 284]
Cc1ccc(NC(=O)Nc2ccccc2Cc2ccccc2)cc1S(=O)(=O)Nc1ccc(Cl)cc1 [Compound 285]
Cc1ccc(NC(=O)NC2C[C@H]2c2ccccc2)cc1S(=O)(=O)Nc1ccc(Cl)cc1 (stereo partly drawn) [Compound 286]
Cc1ccc(NC(=O)Nc2ccc3ccccc3c2)cc1S(=O)(=O)Nc1ccc(Cl)cc1 [Compound 287]
Cc1ccc(NC(=O)N[C@@H](C)c2cccc3ccccc23)cc1S(=O)(=O)Nc1ccc(Cl)cc1 [Compound 288]
Cc1ccc(NC(=O)Nc2ccsc2)cc1S(=O)(=O)Nc1ccc(Cl)cc1 [Compound 289]
Cc1ccc(NC(=O)Nc2c(-c3ccccc3)noc2C)cc1S(=O)(=O)Nc1ccc(Cl)cc1 [Compound 290]
Cc1ccc(NC(=O)Nc2ccc3c(c2)CCO3)cc1S(=O)(=O)Nc1ccc(Cl)cc1 [Compound 291]
Cc1ccc(NC(=O)Nc2ccc3c(c2)OCO3)cc1S(=O)(=O)Nc1ccc(Cl)cc1 [Compound 292]
Cc1ccc(NC(=O)Nc2cccc(C(F)(F)F)c2)cc1S(=O)(=O)Nc1ccccc1Cl [Compound 293]
Cc1ccc(NC(=O)Nc2cccc(C(F)(F)F)c2)cc1S(=O)(=O)Nc1cccc(Cl)c1 [Compound 294]
Cc1ccc(NC(=O)Nc2cccc(C(F)(F)F)c2)cc1S(=O)(=O)Nc1ccccc1F [Compound 295]
Cc1ccc(NC(=O)Nc2cccc(C(F)(F)F)c2)cc1S(=O)(=O)Nc1cccc(F)c1 [Compound 296]
Cc1ccc(NC(=O)Nc2cccc(C(F)(F)F)c2)cc1S(=O)(=O)Nc1ccc(F)cc1 [Compound 297]
Cc1cc(F)ccc1NS(=O)(=O)c1cc(NC(=O)Nc2cccc(C(F)(F)F)c2)ccc1C [Compound 298]
Cc1ccc(NC(=O)Nc2cccc(C(F)(F)F)c2)cc1S(=O)(=O)Nc1ccc(F)c(Cl)c1 [Compound 299]
